Reference: patent publication US20260356846A1, “STATIN DERIVATIVES AND METHODS OF USING THE SAME” (The General Hospital Corporation, priority 2023, published 2026)
Read-outs that look alike come from different tables or passages of the source. One block for each molecule: values may come before it.

How the values were obtained:
[1] = test system: STMN2 (TDP-mut (N352S) STMN2-NLuc SH-SY5Y cells); assay: STMN2 nanoluciferase assay in TDP-43 mutant SH-SY5Y cells (Table A: mut TDP-43; Table B: mut HD Luciferase); format: cell-based, human; details: mutant TDP-43 cell line; for EC50: Homo sapiens, SH-SY5Y
Description: (§1) Neuroblastoma cells (ATCC) were cultured in DMEM/F12 (Gibco) supplemented with 10% fetal-bovine serum (Omega) and 1% penicillin-streptomycin (Gibco) at 37 °C with 5% CO2. For knockdown experiments, cells were transfected with SMARTpool ON-TARGETplus siRNA or control siRNA pool (D001810-10) (GE Dharmacon) at a final concentration of 50 nM, for 96 h in two doses (0, 24 h), after complexing with Lipofectamin RNAiMAX (Invitrogen) in Opti-MEM (Gibco) for 10 min.
(§2) WT and TDP-mut (N352S) SH-SY5Y cells were edited using CRISPR-Cas9 to express Nanoluciferase at the C-terminus of both endogenous STMN2 alleles. A single guided RNA targeting STMN2 C-terminus was designed (Benchling webtool) and cloned into pSpCas9-2A-green fluorescent protein (GFP) plasmid (px458-Addgene) using the BbsI restriction site. The sequence for guided RNA targeting STMN2 was: […]. For the repair template, overlapping fragments of 800 bp STMN2 homology arms flanking Nanoluciferase (NLuc, Promega) were generated and ligated into pUC57 backbone. A 42 bp GS-linker was also included 5′ to NLuc to prevent steric hindrance of the reporter to the final STMN2 exon. Fragments were ligated using Gibson Assembly and nucleofected simultaneously with pSpCas9-2A-GFP-gRNA plasmid using the Amaxa Nucleofector (assay A-023). Forty-eight hours following electroporation, cells were collected, and GFP-positive cells sorted and single-cell seeded into 96-well plates using the SH800S Sony cell sorter. Individual clones were expanded and DNA was extracted for PCR amplification of the STMN2 Ex5 genomic locus using primers within NLuc and outside the STMN2 5′ homology arm to confirm presence of the insert. The entire STMN2 coding region and all exon-intron junctions (>500-bp length of each intronic region) were then sequenced to verify the absence of any additional DNA alteration. qPCR analysis was performed with a wild-type isogenic SH-SY5Y cell line that had undergone the mutagenesis attempt but not acquired the insertion mutation during the original screening process.
(§3) TDP-mut STMN2-NLuc SH-SY5Y cells were used in small-molecule screening at ICCB-Longwood. 3000 cells/well were plated in white 384-well plates using a 50 ul sample volume. 24 hours after plating, compounds were added using 100 nl pin transfer. 24 hours later, 25 ul NLuc assay was added to each well according to manufacturer instructions (Promega, Cat #). Plates were shaken for 1 min prior to luminescence readings using EnVision2 machine. DMSO-only and WT STMN2-NLuc cells were included as negative and positive controls respectively on each plate, producing an average Z′score of ~0.7 across the screen. Each library plate was conducted in duplicate, and Z-scores calculated for each compound. For subsequent validation experiments, cell numbers in each well were quantified by hoescht staining at 1 μg/ml for 15 mins at 37C in black, clear bottom plates, prior to imaging at 4× using automated microscopy (ImageXpressMicro). Nuclei were then counted using a custom algorithm, and luciferase assay run as above. Luminescence results were then normalised against cell counts as RLU/cell.
(§4) Each compound was tested in triplicate in log doses ranging 0.01 μM−10 μM. The values are represented in luminescence normalized to the number of cells in the well, wherein darker grey correlates to higher RLU per cell and higher STMN2 protein expression.

[2] = test system: STMN2 (WT STMN2-NLuc SH-SY5Y cells); assay: STMN2 nanoluciferase assay in WT SH-SY5Y cells (Table A: WT TDP-32; Table B: WT HD Luciferase); format: cell-based, human; details: Homo sapiens, SH-SY5Y, WT cell line; for maximal fold induction: Emax
Description: as §1, §2, §3, §4

[3] = Table B, read-out: EC50, mut HD Luciferase
[4] = Table B, read-out: EC50, WT HD Luciferase
[5] = Table A, read-out: EC50, mut TDP-43
[6] = Table A, read-out: EC50, WT TDP-32

EC50 [1, 5]: ≤ 100 nM | EC50 [1, 3]: ≤ 10 nM | EC50 [2, 6]: ≤ 100 nM | EC50 [2, 4]: ≤ 10 nM
SMILES: COCc1c(C2CC2)nc(C2CC2)c(/C=C/[C@@H](O)C[C@@H](O)CC(=O)O)c1-c1ccc(F)cc1Cl [II-9, (3R,5S,E)-7-(4-(2-chloro-4-fluorophenyl)-2,6-dicyclopropyl-5-(methoxymethyl)pyridin-3-yl)-3,5-dihydroxyhept-6-enoic acid]
maximal fold induction ([2]; Table B): 1.5 to 1.75

EC50 [1, 3]: ≤ 10 nM | EC50 [2, 4]: ≤ 10 nM
SMILES: COCc1c(C2CC2)nc(C2CC2)c(/C=C/[C@@H](O)C[C@@H](O)CC(=O)O)c1-c1c(F)cc(F)cc1Cl [II-21, (3R,5S,E)-7-(4-(2-chloro-4,6-difluorophenyl)-2,6-dicyclopropyl-5-(methoxymethyl)pyridin-3-yl)-3,5-dihydroxyhept-6-enoic acid]
maximal fold induction ([2]; Table B): 1.5 to 1.75

EC50 [1, 3]: 10 to 50 nM | EC50 [2, 4]: 10 to 50 nM
SMILES: COCc1c(C2CC2)nc(C2CC2)c(/C=C/[C@@H](O)C[C@@H](O)CC(=O)O)c1-c1c(C)cccc1F [II-18, (3R,5S,E)-7-(2,6-dicyclopropyl-4-(2-fluoro-6-methylphenyl)-5-(methoxymethyl)pyridin-3-yl)-3,5-dihydroxyhept-6-enoic acid]

EC50 [1, 3]: ≥ 500 nM | EC50 [2, 4]: ≥ 500 nM
SMILES: COCc1c(C2CC2)nc(C)c(/C=C/[C@@H](O)C[C@@H](O)CC(=O)O)c1-c1ccc(F)cc1C [II-26, (3R,5S,E)-7-(6-cyclopropyl-4-(4-fluoro-2-methylphenyl)-5-(methoxymethyl)-2-methylpyridin-3-yl)-3,5-dihydroxyhept-6-enoic acid]
HD Luciferase (mut, Emax) ([1]; Table B): * (means≥1 and <1.25) | maximal fold induction ([2]; Table B): 1 to 1.25

The next lines start with the molecule.

SMILES: Cc1csc2nc(C3CC3)c(/C=C/[C@@H](O)C[C@@H](O)CC(=O)O)c(-c3ccc(F)cc3)c12 [Example I-10, (3R,5S,E)-7-(6-cyclopropyl-4-(4-fluorophenyl)-3-methylthieno[2,3-b]pyridin-5-yl)-3,5-dihydroxyhept-6-enoic acid]
EC50 [1, 3]: 10 to 50 nM | EC50 [2, 4]: 10 to 50 nM

SMILES: O=C(O)C[C@H](O)C[C@H](O)/C=C/c1c(C2CC2)nc2scnc2c1-c1ccc(F)cc1 [Example I-2, (3R,5S,E)-7-(5-cyclopropyl-7-(4-fluorophenyl)thiazolo[5,4-b]pyridin-6-yl)-3,5-dihydroxyhept-6-enoic acid]
EC50 [1, 3]: ≥ 500 nM | HD Luciferase (mut, Emax) ([1]; Table B): * (means≥1 and <1.25) | maximal fold induction ([2]; Table B): 1 to 1.25 | EC50 [2, 4]: ≥ 500 nM

SMILES: Cc1csc2c(-c3ccc(F)cc3)c(CC[C@H](O)C[C@@H](O)CC(=O)O)c(C3CC3)nc12 [Example I-33, (3R,5S)-7-(5-cyclopropyl-7-(4-fluorophenyl)-3-methylthieno[3,2-b]pyridin-6-yl)-3,5-dihydroxyheptanoic acid]
EC50 [1, 3]: 100 to 500 nM | HD Luciferase (mut, Emax) ([1]; Table B): ** (means≥1.25 and <1.5) | EC50 [2, 4]: 100 to 500 nM

SMILES: O=C(O)C[C@H](O)C[C@H](O)/C=C/c1c(C2CC2)nc2ccccc2c1-c1ccc(F)cc1 [Pitavastatin, pitavastatin, reference compound]
EC50 [1, 5]: 500 to 1000 nM | EC50 [2, 6]: 500 to 1000 nM

SMILES: CC[C@H](C)C(=O)O[C@H]1C[C@H](O)C=C2C=C[C@H](C)[C@H](CC[C@@H](O)C[C@@H](O)CC(=O)O)[C@H]21 [Pravastatin]
EC50 [1, 5]: ≥ 10000 nM | EC50 [2, 6]: ≥ 10000 nM

SMILES: Cc1cc(F)ccc1-c1c(/C=C/[C@@H](O)C[C@@H](O)CC(=O)O)c(C2CC2)nc2c(C)csc12 [Example I-13, (3R,5S,E)-7-(5-cyclopropyl-7-(4-fluoro-2-methylphenyl)-3-methylthieno[3,2-b]pyridin-6-yl)-3,5-dihydroxyhept-6-enoic acid]
EC50 [1, 3]: 10 to 50 nM | EC50 [2, 4]: 10 to 50 nM
